Assays:
[1] = tested on: Pfa1 Gpx4−/− overexpressing chimeric FSP1 C2; test: Cell viability (Alamar blue), chimeric construct C2; format: cell-based, murine; settings: Mus musculus; chimeric construct C2 (human residues 59 to 120); x axis iFSP1 (μM); read-out: IC50 (dose-response toxicity)
Description: (§1) Cell Lines. 4-hydroxytamoxifen (TAM)-inducible Gpx4^−/− murine immortalized fibroblasts (Pfa1) were reported previously. These cells harbor two loxP-flanked Gpx4 alleles and stably express TAM inducible Cre recombinase allowing the genetic deletion of Gpx4 at will. For all experiments using Gpx4^−/− the well were treated with 4-hydroxitamoxifen (TAM) 1 µM. All cells were cultured with were cultured in DMEM-high glucose (4.5 g glucose/L) with 10% fetal bovine serum (FBS), Glutamax, and 1% penicillin/streptomycin (Gibco, Thermo Fischer) at 37 °C with 5% CO2 and verified to be negative for mycoplasma.
(§2) Cell viability assays. Alamar Blue method: Cells were seeded on 96-well plates (2000 cells per well) and treated with the compounds RSL3, iFSP1 and (liproxstatin-1) after plating. Cell viability was assessed 48 h (unless stated otherwise) after treatment using Alamar Blue as an indicator of viable cells. Alamar blue solution was made by dissolving of 1 g resazurin sodium salt (Thermo Fischer) in 200 mL sterile PBS and sterile filtrated through a 0.22 µm filter. Stock solutions were stored at 4 °C. The working solution was made freshly by adding 200 µL of the stock solution to 25 mL growth media. After 2–4 h incubation time, viability was estimated by measuring the fluorescence using a 540/35 excitation filter and a 590/20 emission on a Spark® microplate reader (Tecan, Zürich, Switzerland). […]

[2] = tested on: Pfa1 Gpx4−/− overexpressing chimeric FSP1 C3; test: Cell viability (Alamar blue), chimeric construct C3; format: cell-based, murine; settings: Mus musculus; chimeric construct C3 (human residues 121 to 180); x axis iFSP1 (μM); read-out: IC50 (dose-response toxicity)
Description: as §1, §2

[3] = tested on: Pfa1 Gpx4−/− overexpressing hFSP1 Y296A; test: Cell viability (Alamar blue), hFSP1 Y296A; format: cell-based, murine
Description: as §1
Cell viability assays. Alamar Blue method: Cells were seeded on 96-well plates (2000 cells per well) and treated with the compounds RSL3, iFSP1 and (liproxstatin-1) after plating. Cell viability was assessed 48 h (unless stated otherwise) after treatment using Alamar Blue as an indicator of viable cells. Alamar blue solution was made by dissolving of 1 g resazurin sodium salt (Thermo Fischer) in 200 mL sterile PBS and sterile filtrated through a 0.22 µm filter. Stock solutions were stored at 4 °C. The working solution was made freshly by adding 200 µL of the stock solution to 25 mL growth media. After 2–4 h incubation time, viability was estimated by measuring the fluorescence using a 540/35 excitation filter and a 590/20 emission on a Spark® microplate reader (Tecan, Zürich, Switzerland).

[4] = target: T1, recombinant purified hFSP1 F360L mutant (Homo sapiens, UniProt Q9BRQ8, F360L); test: NADH consumption assay (340 nm), FSP1 enzyme activity and inhibition; format: biochemical; settings: iFSP1 2 µM; menadione as substrate
T1 construct: HisSUMO (cleaved yes); made in house; host or cells: E. coli BL21
T1 sequence (Q9BRQ8 whole entry F360L): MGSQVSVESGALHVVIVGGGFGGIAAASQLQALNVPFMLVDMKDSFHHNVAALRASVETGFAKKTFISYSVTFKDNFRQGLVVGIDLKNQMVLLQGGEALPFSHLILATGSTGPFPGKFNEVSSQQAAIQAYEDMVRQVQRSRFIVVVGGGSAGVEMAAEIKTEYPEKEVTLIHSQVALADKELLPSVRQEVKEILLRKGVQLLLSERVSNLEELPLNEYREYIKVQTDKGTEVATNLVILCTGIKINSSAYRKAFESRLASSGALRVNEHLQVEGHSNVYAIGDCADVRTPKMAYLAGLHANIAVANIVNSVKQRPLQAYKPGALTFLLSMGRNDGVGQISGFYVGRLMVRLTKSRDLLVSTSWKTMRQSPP
Description: (§3) FSP1 (human isoform 1, UniProt Q9BRQ8-1) WT (hFSP1 WT) and F360L (hFSP1 F360L) were expressed in E.coli BL21 as HisSUMO fusion protein. Cells were grown in lysogeny broth medium at 18 °C and induced with 0.5 mM isopropyl-β-thiogalactoside at a cell density A600 of 0.6. Cells were collected after overnight expression by centrifugation, resuspended in lysis buffer ([…], 50 mM Tris-HCl pH 8, 1 mM TCEP, 20 mM imidazole, protease inhibitor, DNase) and lysed by sonication. Cell debris was removed by centrifugation (30,000 × g) at 4 °C for 30 min, after which an IMAC purification was performed. […] IMAC eluates were analysed by SDS PAGE and concentrated to 15 mL (hFSP1 WT) and 5 mL (hFSP1 F360L), respectively. […] Pure fractions were pooled (C12—D11 for hFSP1 WT and C7—D4 for hFSP1 F360L), analysed by SDS-PAGE (Supplementary Fig. 4) and concentrated to 5.8 mL at 285.9 µM (hFSP1 WT) and 1.2 mL at 269.5 µM (FSP1 F360L), flash frozen in liquid N2 and stored at −80 °C.
(§4) Enzyme reactions were performed in TBS buffer (50 mM TRIS pH 8, 250 mM NaCl) on a 96-well plate in a 100 µL final volume. […] Absorbance (340 nm) was recorded every 30 s on a Spark® microplate reader (Tecan, Zürich, Switzerland) in order to determine NADH consumption. […]

[5] = target: T2, recombinant purified hFSP1 WT (Homo sapiens, UniProt Q9BRQ8); test: as above; format: biochemical; settings: iFSP1 2 µM; menadione as substrate
T2 construct: HisSUMO (cleaved yes); made in house; host or cells: E. coli BL21
T2 sequence (Q9BRQ8 whole entry): as the sequence (Q9BRQ8 whole entry F360L) above, with L360F counted along it
Description: as §3, §4

[6] = tested on: Pfa1 Gpx4−/− cell line overexpressing hFSP1, mFSP1 and hFSP1 F360L mutants; test: BODIPY 581/591 C11 oxidation (flow cytometry); format: cell-based, murine; settings: iFSP1 3 µM for 3 h; all conditions, highest for hFSP1 WT
Description: In total, 150,000 cells per well were seeded on 6-well dishes one day prior to the experiment. […] Cells were incubated with C11-BODIPY (581/591) (1 μM) for 30 min at 37 °C before they were harvested by trypsinisation. Subsequently, cells were resuspended in 500 μL of fresh PBS (DPBS, Gibco) and analyzed using a 488-nm laser excitation laser and fluorescence recorded on a (FACS Canto II, BD Biosciences). Data was collected from the FL1 detector (C11-BODIPY, Invitrogen) with a 502LP and 530/30 BP filter. At least 20,000 events were analyzed per sample. Data was analyzed using FlowJo Software version 10.8.1.

## Cc1ccc(-c2c(C#N)c(N)n3c(nc4ccccc43)c2C#N)cc1 [iFSP1]
[1]
  IC50: 6.2 µM
[2]
  IC50: 8.71 µM
[3]
  inhibitor activity (ferroptosis induction): abolishes the inhibitor activity
[3]; Mus musculus, x axis iFSP1 (μM), read-out: IC50 (dose-response toxicity)
  IC50: 5.62 µM
[4]
  inhibition of enzyme activity (NADH consumption): just the activity of the WT protein was inhibited by iFSP1
[5]
  inhibition of enzyme activity (NADH consumption): inhibited
[6]
  BODIPY-C11 oxidation induced by iFSP1: small increase
